Experiment [1] addresses PARG (Homo sapiens, UniProt Q86W56). The experiment in a line: Biochemical assay (PARG, TFMU-ADPr substrate).
Experiment [2] deals with Human breast squamous carcinoma cells HCC1806. The experiment in a line: Cell function assay (In-Cell Western, PAR/pADPr after MMS). In kind it is cell-based. The conditions noted are these: read-out: IC50 (nM) in cell function assay. In short, it runs like this:
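HCC1806 cells adhered 24 h at 37 °C, 5% CO2, then were pretreated 1 h with compound (30000 nM down to 1 nM, plus 0 nM) or DMSO. MMS was then added at 0.5 mM final for 1 h before In-Cell Western detection of PAR/pADPr.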

For experiment [3], the system named is HCC1806. The experiment in a line: Cell viability assay (CellTiter-Glo). The experiment is classed as cell-based, Human. As to conditions: HCC1806, 7 days, CellTiter-Glo, read-out: IC50 (nM) in cell viability assay.
Where [4] appears, read: 4 nM PARG, 66.2 uM TFMU-ADPr, 3 min at room temperature.
The mark [5] stands for this setting: HCC1806, In-Cell Western, MMS treatment.
Setting [6] is: HCC1806, compound 1 h then 0.5 mM MMS 1 h, PAR/pADPr antibody, In-Cell Western.

In general, IC50 refers to the point on the concentration scale where inhibition reaches its midpoint.

Read-outs that look alike come from different tables or passages of the source.

Sequence of PARG (Q86W56 whole entry): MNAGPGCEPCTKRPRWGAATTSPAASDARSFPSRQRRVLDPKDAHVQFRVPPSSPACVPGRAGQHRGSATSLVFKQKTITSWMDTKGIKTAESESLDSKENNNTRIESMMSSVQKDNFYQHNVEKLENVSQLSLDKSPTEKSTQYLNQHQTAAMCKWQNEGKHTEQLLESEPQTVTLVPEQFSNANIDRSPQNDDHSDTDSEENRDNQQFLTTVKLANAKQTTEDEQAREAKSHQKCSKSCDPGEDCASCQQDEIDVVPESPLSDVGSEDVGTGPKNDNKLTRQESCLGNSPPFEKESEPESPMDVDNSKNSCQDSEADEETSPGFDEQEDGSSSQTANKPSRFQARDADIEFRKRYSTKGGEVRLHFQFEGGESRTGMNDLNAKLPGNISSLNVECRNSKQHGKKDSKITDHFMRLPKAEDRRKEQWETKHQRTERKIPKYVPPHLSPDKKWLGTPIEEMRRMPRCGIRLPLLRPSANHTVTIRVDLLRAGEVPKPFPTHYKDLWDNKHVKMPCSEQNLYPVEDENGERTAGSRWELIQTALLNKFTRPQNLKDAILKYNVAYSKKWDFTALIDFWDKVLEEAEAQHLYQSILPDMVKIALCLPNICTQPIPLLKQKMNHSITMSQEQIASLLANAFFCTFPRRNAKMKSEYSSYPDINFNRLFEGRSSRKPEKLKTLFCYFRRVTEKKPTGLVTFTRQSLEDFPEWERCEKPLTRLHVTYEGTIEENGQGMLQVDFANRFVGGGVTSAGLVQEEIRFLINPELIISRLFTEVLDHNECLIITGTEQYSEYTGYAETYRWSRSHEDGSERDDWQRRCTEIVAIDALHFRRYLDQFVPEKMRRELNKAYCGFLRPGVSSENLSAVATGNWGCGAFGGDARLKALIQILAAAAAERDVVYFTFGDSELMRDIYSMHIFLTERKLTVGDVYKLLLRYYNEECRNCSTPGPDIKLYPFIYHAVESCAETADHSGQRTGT

Turning to `C[C@@H]1CN(c2cc(S(=O)(=O)NC3(C#N)CC3)cn3c(-c4nnc(C(F)F)s4)ncc23)CCN1C(=O)C(C)(C)C` [Example 84, (R)-N-(1-cyanocyclopropyl)-3-(5-(difluoromethyl)-1,3,4-thiadiazol-2-yl)-8-(3-methyl-4-pivaloylpiperazin-1-yl)imidazo[1,5-a]pyridine-6-sulfonamide], the 50% inhibitory concentration (IC50) in experiment [1] (setting [4]) is less than 100 nM; in experiment [1] (PARG, TFMU-ADPr substrate) it was 11 nM; in experiment [2] (setting [5]), 6.85 nM; in experiment [2] (setting [6]), less than 100 nM; in experiment [3], 472 nM; in experiment [3] (Homo sapiens, HCC1806, 168 h) it was less than 500 nM.

On to `CC(C)C(=O)N1CCN(c2cc(S(=O)(=O)NC3(CF)CC3)cn3c(-c4nnc(C(F)F)s4)nnc23)CC1` [Example 100, 3-(5-(difluoromethyl)-1,3,4-thiadiazol-2-yl)-N-(1-(fluoromethyl)cyclopropyl)-8-(4-isobutyrylpiperazin-1-yl)-[1,2,4]triazolo[4,3-a]pyridine-6-sulfonamide], for which the IC50 in experiment [1] (setting [4]) is less than 100 nM; in experiment [1] (PARG, TFMU-ADPr substrate), 1.99 nM; in experiment [2] (setting [5]) it was 4.96 nM; in experiment [2] (setting [6]), less than 100 nM; in experiment [3], 448 nM; in experiment [3] (Homo sapiens, HCC1806, 168 h), less than 500 nM.

As for `C[C@@H]1CN(c2cc(S(=O)(=O)NC3(C#N)CC3)cn3c(-c4nnc(C(F)(F)F)s4)ncc23)CCN1C(=O)C1(C)CC1` [Example 80, (R)-N-(1-cyanocyclopropyl)-8-(3-methyl-4-(1-methylcyclopropane-1-carbonyl)piperazin-1-yl)-3-(5-(trifluoromethyl)-1,3,4-thiadiazol-2-yl)imidazo[1,5-a]pyridine-6-sulfonamide], the half-maximal inhibitory concentration (IC50) in experiment [1] (setting [4]) was less than 100 nM; in experiment [1] (PARG, TFMU-ADPr substrate), 28.8 nM; in experiment [2] (setting [5]), 7.57 nM; in experiment [2] (setting [6]), less than 100 nM; in experiment [3], 764 nM; in experiment [3] (Homo sapiens, HCC1806, 168 h) it was 500 to 5000 nM.

Regarding `CC(C)C(=O)N1CCN(c2cc(S(=O)(=O)NC34CC(C3)C4)cn3c(-c4nnc(C(F)F)s4)ncc23)CC1` [Example 54, N-(bicyclo[1.1.1]pentan-1-yl)-3-(5-(difluoromethyl)-1,3,4-thiadiazol-2-yl)-8-(4-isobutyrylpiperazin-1-yl)imidazo[1,5-a]pyridine-6-sulfonamide], the IC50 in experiment [1] (setting [4]) is less than 100 nM; in experiment [1] (PARG, TFMU-ADPr substrate), 11.4 nM; in experiment [2] (setting [5]), 26.5 nM; in experiment [2] (setting [6]), less than 100 nM; in experiment [3], 9380 nM; in experiment [3] (Homo sapiens, HCC1806, 168 h), 5000 to 30000 nM.

Turning to `C[C@@H]1CN(c2cc(S(=O)(=O)NC3(C#N)CC3)cn3c(-c4nnc(C(F)F)s4)ncc23)C[C@H](C)N1C(=O)C1CC1` [Example 78, N-(1-cyanocyclopropyl)-8-((3R,5S)-4-(cyclopropanecarbonyl)-3,5-dimethylpiperazin-1-yl)-3-(5-(difluoromethyl)-1,3,4-thiadiazol-2-yl)imidazo[1,5-a]pyridine-6-sulfonamide], the IC50 in experiment [1] (setting [4]) is less than 100 nM; in experiment [1] (PARG, TFMU-ADPr substrate), 7.59 nM; in experiment [2] (setting [5]), 7.34 nM; in experiment [2] (setting [6]), less than 100 nM; in experiment [3], 866 nM; in experiment [3] (Homo sapiens, HCC1806, 168 h), 500 to 5000 nM.

Take `C[C@@H]1CN(c2cc(S(=O)(=O)NC3(C#N)CC3)cn3c(-c4nnc(C(F)F)s4)ncc23)CCN1C(=O)C(C)(C)F` [Example 94, (R)-N-(1-cyanocyclopropyl)-3-(5-(difluoromethyl)-1,3,4-thiadiazol-2-yl)-8-(4-(2-fluoro-2-methylpropanoyl)-3-methylpiperazin-1-yl)imidazo[1,5-a]pyridine-6-sulfonamide]: the IC50 is less than 100 nM in experiment [1] (setting [4]); 9.55 nM in experiment [1] (PARG, TFMU-ADPr substrate); 23.4 nM in experiment [2] (setting [5]); less than 100 nM in experiment [2] (setting [6]); 350 nM in experiment [3]; less than 500 nM in experiment [3] (Homo sapiens, HCC1806, 168 h).

As for `CC(C)C(=O)N1CCN(c2cc(S(=O)(=O)NC3(C)CC3)cn3c(-c4nnc(C(F)F)s4)ncc23)CC1` [Example 34, 3-(5-(difluoromethyl)-1,3,4-thiadiazol-2-yl)-8-(4-isobutyrylpiperazin-1-yl)-N-(1-methylcyclopropyl)imidazo[1,5-a]pyridine-6-sulfonamide], the half-inhibitory concentration (IC50) in experiment [1] (setting [4]) was less than 100 nM; in experiment [1] (PARG, TFMU-ADPr substrate), 1.22 nM; in experiment [2] (setting [5]) it was 5.77 nM; in experiment [2] (setting [6]), less than 100 nM; in experiment [3] (Homo sapiens, HCC1806, 168 h), less than 500 nM.

For `COC1(C)CCN(c2cc(S(=O)(=O)NC3(CF)CC3)cn3c(-c4nnc(C(F)F)s4)nnc23)CC1` [Example 111, 3-(5-(difluoromethyl)-1,3,4-thiadiazol-2-yl)-N-(1-(fluoromethyl)cyclopropyl)-8-(4-methoxy-4-methylpiperidin-1-yl)-[1,2,4]triazolo[4,3-a]pyridine-6-sulfonamide], the IC50 is less than 100 nM in experiment [1] (setting [4]); 0.37 nM in experiment [1] (PARG, TFMU-ADPr substrate); 72.9 nM in experiment [2] (setting [5]); less than 100 nM in experiment [2] (setting [6]); 916 nM in experiment [3]; 500 to 5000 nM in experiment [3] (Homo sapiens, HCC1806, 168 h).

`C[C@@H]1CN(c2cc(S(=O)(=O)NC3(C)CC3)cn3c(-c4nnc(C(F)F)s4)nnc23)CCN1C(=O)C1(C)CC1` [Example 117, (R)-3-(5-(difluoromethyl)-1,3,4-thiadiazol-2-yl)-8-(3-methyl-4-(1-methylcyclopropane-1-carbonyl)piperazin-1-yl)-N-(1-methylcyclopropyl)-[1,2,4]triazolo[4,3-a]pyridine-6-sulfonamide]: the IC50 in experiment [1] (setting [4]) is less than 100 nM; in experiment [1] (PARG, TFMU-ADPr substrate), 8.71 nM; in experiment [2] (setting [5]), 1.49 nM; in experiment [2] (setting [6]), less than 100 nM; in experiment [3], 256 nM; in experiment [3] (Homo sapiens, HCC1806, 168 h), less than 500 nM.

Take `CC(C)C(=O)N1CC2(CC=C(c3nc(-c4nnc(C(F)F)s4)n4cc(S(=O)(=O)NC5(C#N)CC5)ccc34)C2)C1` [Example 24, N-(1-cyanocyclopropyl)-3-(5-(difluoromethyl)-1,3,4-thiadiazol-2-yl)-1-(2-isobutyryl-2-azaspiro[3.4]oct-6-en-6-yl)imidazo[1,5-a]pyridine-6-sulfonamide]: the IC50 in experiment [1] (setting [4]) was less than 100 nM; in experiment [1] (PARG, TFMU-ADPr substrate) it was 2.46 nM; in experiment [2] (setting [5]), 52.6 nM; in experiment [2] (setting [6]), less than 100 nM; in experiment [3], 500 nM; in experiment [3] (Homo sapiens, HCC1806, 168 h), less than 500 nM.

For `CC(C)C(=O)N1CCN(c2cc(S(=O)(=O)NC3(CO)CC3)cn3c(-c4nnc(C(F)F)s4)ncc23)CC1` [Example 37, 3-(5-(difluoromethyl)-1,3,4-thiadiazol-2-yl)-N-(1-(hydroxymethyl)cyclopropyl)-8-(4-isobutyrylpiperazin-1-yl)imidazo[1,5-a]pyridine-6-sulfonamide], the IC50 in experiment [1] (setting [4]) was less than 100 nM; in experiment [1] (PARG, TFMU-ADPr substrate), 4.7 nM; in experiment [2] (setting [5]) it was 166 nM; in experiment [3] (Homo sapiens, HCC1806, 168 h), 2670 nM.

Regarding `CC(C)C(=O)N1CCN(c2cc(S(=O)(=O)NC3(C#N)CC3)cn3c(-c4nnc(CO)s4)ncc23)CC1` [Example 366, N-(1-cyanocyclopropyl)-3-(5-(hydroxymethyl)-1,3,4-thiadiazol-2-yl)-8-(4-isobutyrylpiperazin-1-yl)imidazo[1,5-a]pyridine-6-sulfonamide], the IC50 in experiment [1] (setting [4]) was less than 100 nM; in experiment [1] (PARG, TFMU-ADPr substrate), 7.94 nM; in experiment [2] (setting [5]) it was 70.4 nM; in experiment [2] (setting [6]) it was less than 100 nM; in experiment [3], 7730 nM; in experiment [3] (Homo sapiens, HCC1806, 168 h) it was 5000 to 30000 nM.

For the origin of these results see patent publication US20260258035A1, “FIVE-MEMBERED AND SIX-MEMBERED NITROGEN-CONTAINING COMPOUND, AND INTERMEDIATE, PREPARATION METHOD AND USE THEREOF” (HANGZHOU SYNRX THERAPEUTICS BIOMEDICAL TECHNOLOGY CO., LTD., priority 2022, published 2026).
